Molecular target: MCH receptor (Homo sapiens, UniProt Q99705)
Assay: High throughput functional screening FLIPR/FDSS6000: inhibition of MCH-evoked intracellular Ca2+ changes
Format: cell-based
Conditions: class by percent of control at 10^-7 M or IC50
Procedure, shortened: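 Fluo4 fluorescence (Ex 488 nm, Em 530 nm) tracked MCH-evoked [Ca2+]i transients over 290 s by FLIPR or FDSS. Cells carried a constitutively active, non-endogenous receptor version. Compounds were added 3 min before a 50 nM MCH challenge.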

Compound	class
COc1cc(NC(=S)NC[C@H]2CC[C@@H](Nc3nc(N(C)C)c4ccccc4n3)CC2)c(OC)cc1Cl [compound 794]	3 (Class 3: The value of percent of control at 10^−7 M was more than 60% or the value of IC50 was more than 200 nM.)
CN(C)c1nc(N[C@H]2CC[C@@H](CNC(=S)NCCCCc3ccccc3)CC2)nc2ccccc12 [compound 795]	3 (Class 3: The value of percent of control at 10^−7 M was more than 60% or the value of IC50 was more than 200 nM.)
CN(C)c1nc(N[C@H]2CC[C@@H](CNC(=S)Nc3ccc(C(C)(C)C)cc3)CC2)nc2ccccc12 [compound 796]	3 (Class 3: The value of percent of control at 10^−7 M was more than 60% or the value of IC50 was more than 200 nM.)
CN(C)c1nc(N[C@H]2CC[C@@H](CNC(=S)Nc3cc(Cl)ccc3F)CC2)nc2ccccc12 [compound 797, N-(5-choloro-2-fluorophenyl)-N′-[(cis-4-{[4-(dimethylamino)-quinazolin-2-yl]amino}cyclohexyl)methyl]thiourea]	3 (Class 3: The value of percent of control at 10^−7 M was more than 60% or the value of IC50 was more than 200 nM.)

Same assay, conditions: class by percent of control at 10^-7 M or by IC50; read-out: class

IC50 [nM]	Compound
50 to 200	CN(C)c1nc(N[C@H]2CC[C@@H](CNC(=S)NCC3CC3)CC2)nc2ccccc12 [compound 800]
> 200	CCOC(=O)c1c(NC(=S)NC[C@H]2CC[C@@H](Nc3nc(N(C)C)c4ccccc4n3)CC2)sc2c1CCCC2 [compound 801, ethyl 2-[({[(cis-4-{[4-(dimethylamino)quinazolin-2-yl]amino}cyclohexyl)methyl]amino}carbonothioyl)amino]-4.5.6.7-tetrahydro-1-benzothiophene-3-carboxylate]
> 200	COC(=O)c1sccc1NC(=S)NC[C@H]1CC[C@@H](Nc2nc(N(C)C)c3ccccc3n2)CC1 [compound 802]
> 200	CN(C)c1nc(N[C@H]2CC[C@@H](CNC(=S)Nc3ccc(F)cc3Br)CC2)nc2ccccc12 [compound 803]
> 200	CN(C)c1nc(N[C@H]2CC[C@@H](CNC(=S)Nc3ccc(F)c(Cl)c3)CC2)nc2ccccc12 [compound 804]
> 200	CCCCc1ccc(NC(=S)NC[C@H]2CC[C@@H](Nc3nc(N(C)C)c4ccccc4n3)CC2)c(C)c1 [compound 805]
> 200	CN(C)c1ccc(NC(=S)NC[C@H]2CC[C@@H](Nc3nc(N(C)C)c4ccccc4n3)CC2)cc1 [compound 806]
> 200	CN(C)c1nc(N[C@H]2CC[C@@H](CNC(=S)NCCN3CCOCC3)CC2)nc2ccccc12 [compound 808]
> 200	CN(C)c1nc(N[C@H]2CC[C@@H](CNC(=S)Nc3cccnc3)CC2)nc2ccccc12 [compound 809]
> 200	CN(C)c1nc(N[C@H]2CC[C@@H](CNC(=S)NCCCN3CCOCC3)CC2)nc2ccccc12 [compound 810]
> 200	CCN(CC)c1ccc(NC(=S)NC[C@H]2CC[C@@H](Nc3nc(N(C)C)c4ccccc4n3)CC2)cc1 [compound 811]
> 200	CN(C)c1nc(N[C@H]2CC[C@@H](CNC(=S)Nc3ccc(/N=N/c4ccccc4)cc3)CC2)nc2ccccc12 [compound 812]
> 200	CN(C)c1nc(N[C@H]2CC[C@@H](CNC(=S)NCCN3CCCCC3)CC2)nc2ccccc12 [compound 813]
> 200	CN(C)c1nc(N[C@H]2CC[C@@H](CNC(=S)Nc3ccc(-n4cccn4)cc3)CC2)nc2ccccc12 [compound 814]
> 200	CN(C)c1nc(N[C@H]2CC[C@@H](CNC(=S)Nc3cccc4nsnc34)CC2)nc2ccccc12 [compound 815]
> 200	CN(C)c1nc(N[C@H]2CC[C@@H](CNC(=S)Nc3ccc4nsnc4c3)CC2)nc2ccccc12 [compound 816]
> 200	Cc1noc(C)c1NC(=S)NC[C@H]1CC[C@@H](Nc2nc(N(C)C)c3ccccc3n2)CC1 [compound 817]
> 200	CN(C)c1nc(N[C@H]2CC[C@@H](CNC(=S)Nc3ccc(-c4cnco4)cc3)CC2)nc2ccccc12 [compound 818]
50 to 200	Cc1onc(-c2ccccc2)c1NC(=S)NC[C@H]1CC[C@@H](Nc2nc(N(C)C)c3ccccc3n2)CC1 [compound 819]
> 200	CN(C)c1nc(N[C@H]2CC[C@@H](CNC(=S)Nc3ccc(N4CCOCC4)nc3)CC2)nc2ccccc12 [compound 820]
> 200	CN(C)c1nc(N[C@H]2CC[C@@H](CNC(=S)Nc3ccc(Oc4ccccc4)nc3)CC2)nc2ccccc12 [compound 821]
< 50	CN(C)c1nc(N[C@H]2CC[C@@H](NC(=O)NCc3ccc(F)cc3)CC2)nc2ccccc12 [compound 824, N-(cis-4-{[4-(dimethylamino)quinazolin-2-yl]amino}cyclohexyl)-N′-(4-fluorobenzyl)urea]
50 to 200	CN(C)c1nc(N[C@H]2CC[C@@H](NC(=O)Nc3ccc(I)cc3)CC2)nc2ccccc12 [compound 826, N-(cis-4-{[4-(dimethylamino)quinazolin-2-yl]amino}cyclohexyl)-N′-(4-iodophenyl)urea]
50 to 200	Cc1ccc(CNC(=O)N[C@H]2CC[C@@H](Nc3nc(N(C)C)c4ccccc4n3)CC2)cc1 [compound 830, N-(cis-4-{[4-(dimethylamino)quinazolin-2-yl]amino}cyclohexyl)-N′-(4-methylbenzyl)urea]
> 200	CN(C)c1nc(N[C@H]2CC[C@@H](NC(=O)Nc3ccc4c(c3)CCC4)CC2)nc2ccccc12 [compound 839]
50 to 200	CN(C)c1nc(N[C@H]2CC[C@@H](NC(=O)NCCc3ccccc3)CC2)nc2ccccc12 [compound 842, N-(cis-4-{[4-(dimethylamino)quinazolin-2-yl]amino}cyclonexyl)-N′-(2-phenylethyl)urea]
50 to 200	CN(C)c1nc(N[C@H]2CC[C@@H](NC(=O)NC3CCCC3)CC2)nc2ccccc12 [compound 843, N-cyclophenyl-N′-(cis-4-{[4-(dimethylamino)quinazolin-2-yl]amino}cyclohexyl)urea]
50 to 200	CN(C)c1nc(N[C@H]2CC[C@@H](NC(=O)OCCOCc3ccccc3)CC2)nc2ccccc12 [compound 846]
> 200	CN(C)c1nc(N[C@H]2CC[C@@H](NC(=O)OCC(C)(C)C)CC2)nc2ccccc12 [compound 847]

Second part, the compound before the results:

Compound	IC50 [nM]
CN(C)c1nc(N[C@H]2CC[C@@H](NC(=O)Nc3ccc(F)cc3[N+](=O)[O-])CC2)nc2ccccc12 [compound 822, N-(cis-4-{[4-(dimethylamino)quinazolin-2-yl]amino}cyclohexyl)-N′-(4-fluoro-2-nitrophenyl)urea]	50 to 200
CN(C)c1nc(N[C@H]2CC[C@@H](NC(=O)Nc3ccc(F)cc3C(F)(F)F)CC2)nc2ccccc12 [compound 823]	> 200
CCCCCCCOc1ccc(NC(=O)N[C@H]2CC[C@@H](Nc3nc(N(C)C)c4ccccc4n3)CC2)cc1 [compound 825]	> 200
COc1ccc(NC(=O)N[C@H]2CC[C@@H](Nc3nc(N(C)C)c4ccccc4n3)CC2)c(C)c1 [compound 827, N-(cis-4-{[4-(dimethylamino)quinazolin-2-yl]amino}cyclohexyl)-N′-(4-methoxy-2-methylphenyl)urea]	< 50
COc1ccc(NC(=O)N[C@H]2CC[C@@H](Nc3nc(N(C)C)c4ccccc4n3)CC2)c([N+](=O)[O-])c1 [compound 828]	> 200
Cc1ccc(NC(=O)N[C@H]2CC[C@@H](Nc3nc(N(C)C)c4ccccc4n3)CC2)cc1[N+](=O)[O-] [compound 829]	> 200
CCCCOc1ccc(NC(=O)N[C@H]2CC[C@@H](Nc3nc(N(C)C)c4ccccc4n3)CC2)cc1 [compound 831]	> 200
CCCCc1ccc(NC(=O)N[C@H]2CC[C@@H](Nc3nc(N(C)C)c4ccccc4n3)CC2)cc1 [compound 832]	> 200
CN(C)c1nc(N[C@H]2CC[C@@H](NC(=O)Nc3ccc(-c4ccccc4)cc3)CC2)nc2ccccc12 [compound 833]	> 200
COc1cc(OC)c(NC(=O)N[C@H]2CC[C@@H](Nc3nc(N(C)C)c4ccccc4n3)CC2)cc1Cl [compound 834, N-(5-chloro-2,4-dimethoxyphenyl)-N′-(cis-4-{[4-(dimethylamino)quinazolin-2-yl]amino}cyclohexyl)urea]	< 50
COc1ccc(Cl)cc1NC(=O)N[C@H]1CC[C@@H](Nc2nc(N(C)C)c3ccccc3n2)CC1 [compound 835]	> 200
Cc1ccc(Cl)cc1NC(=O)N[C@H]1CC[C@@H](Nc2nc(N(C)C)c3ccccc3n2)CC1 [compound 836]	> 200
CN(C)c1nc(N[C@H]2CC[C@@H](NC(=O)Nc3cc(Cl)ccc3[N+](=O)[O-])CC2)nc2ccccc12 [compound 837]	> 200
Cc1ccc(F)cc1NC(=O)N[C@H]1CC[C@@H](Nc2nc(N(C)C)c3ccccc3n2)CC1 [compound 838, N-(cis-4-{[4-(dimethylamino)quinazolin-2-yl]amino}cyclohexyl)-N′-(5-fluoro-2-methylphenyl)urea]	50 to 200
CN(C)c1nc(N[C@H]2CC[C@@H](NC(=O)NC3c4ccccc4-c4ccccc43)CC2)nc2ccccc12 [compound 840, N-(cis-4-{[4-(dimethylamino)quinazolin-2-yl]amino}cyclohexyl)-N′-9H-fluoren-9-ylurea]	> 200
CN(C)c1nc(N[C@H]2CC[C@@H](NC(=O)NC3c4ccccc4-c4ccccc43)CC2)nc2ccccc12 [compound 841, N-(cis-4-{[4-(dimethylamino)quinazolin-2-yl]amino}cyclonexyl)-N′-9H-fluoren-9-ylurea]	50 to 200
CN(C)c1nc(N[C@H]2CC[C@@H](NC(=O)NC(c3ccccc3)c3ccccc3)CC2)nc2ccccc12 [compound 844, N-(cis-4-{[4-(dimethylamino)quinazolin-2-yl]amino}cyclohexyl)-N′-(diphenylmethyl)urea]	< 50
COC(=O)c1ccc(NC(=O)N[C@H]2CC[C@@H](Nc3nc(N(C)C)c4ccccc4n3)CC2)cc1 [compound 845]	> 200
COc1cc(COC(=O)N[C@H]2CC[C@@H](Nc3nc(N(C)C)c4ccccc4n3)CC2)c([N+](=O)[O-])cc1OC [compound 848]	< 50
